Source: ChEMBL document CHEMBL4680245, “Design, synthesis and biological evaluation of tetrahydroquinoline-based reversible LSD1 inhibitors” (Eur J Med Chem, 2020)
The source made the active and inactive calls. The rule behind the calls is not given here.

What was measured:
[1] = target: T1, Lysine-specific histone demethylase 1A (Homo sapiens, UniProt O60341); test: Inhibition of LSD1 (unknown origin) by TR-FRET assay
[2] = target: T1, Lysine-specific histone demethylase 1A
Description: Inhibition of human recombinant LSD1 using fluorogenic ADHP based substrate preincubated for 30 mins followed by substrate addition measured after 10 mins by horseradish peroxidase coupled fluorescence assay

[3] = target: T2, Amine oxidase [flavin-containing] A (Homo sapiens, UniProt P21397); test: Inhibition of recombinant N-terminal FLAG-tagged human MAOA expressed in baculovirus infected Sf9 insect cells using luminogenic MAO substrate measured after 1 hr by MAO-glo assay
T2 sequence (P21397 whole entry): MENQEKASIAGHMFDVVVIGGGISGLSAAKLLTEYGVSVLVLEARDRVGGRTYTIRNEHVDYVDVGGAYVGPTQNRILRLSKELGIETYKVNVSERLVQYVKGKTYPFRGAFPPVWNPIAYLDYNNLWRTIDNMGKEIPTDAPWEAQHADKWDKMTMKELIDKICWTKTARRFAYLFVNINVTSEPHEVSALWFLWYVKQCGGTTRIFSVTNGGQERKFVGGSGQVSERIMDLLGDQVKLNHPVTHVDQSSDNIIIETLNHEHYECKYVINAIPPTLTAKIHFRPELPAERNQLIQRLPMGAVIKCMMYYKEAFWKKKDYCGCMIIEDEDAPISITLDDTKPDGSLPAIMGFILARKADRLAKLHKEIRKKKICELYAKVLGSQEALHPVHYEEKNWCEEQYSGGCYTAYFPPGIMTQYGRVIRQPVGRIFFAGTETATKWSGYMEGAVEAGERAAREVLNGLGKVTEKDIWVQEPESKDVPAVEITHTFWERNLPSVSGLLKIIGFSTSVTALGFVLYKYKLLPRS

[4] = target: T3, Amine oxidase [flavin-containing] B (Homo sapiens, UniProt P27338); test: Inhibition of recombinant N-terminal FLAG-tagged human MAOB expressed in baculovirus infected Sf9 insect cells using luminogenic MAO substrate measured after 1 hr by MAO-glo assay
T3 sequence (P27338 whole entry): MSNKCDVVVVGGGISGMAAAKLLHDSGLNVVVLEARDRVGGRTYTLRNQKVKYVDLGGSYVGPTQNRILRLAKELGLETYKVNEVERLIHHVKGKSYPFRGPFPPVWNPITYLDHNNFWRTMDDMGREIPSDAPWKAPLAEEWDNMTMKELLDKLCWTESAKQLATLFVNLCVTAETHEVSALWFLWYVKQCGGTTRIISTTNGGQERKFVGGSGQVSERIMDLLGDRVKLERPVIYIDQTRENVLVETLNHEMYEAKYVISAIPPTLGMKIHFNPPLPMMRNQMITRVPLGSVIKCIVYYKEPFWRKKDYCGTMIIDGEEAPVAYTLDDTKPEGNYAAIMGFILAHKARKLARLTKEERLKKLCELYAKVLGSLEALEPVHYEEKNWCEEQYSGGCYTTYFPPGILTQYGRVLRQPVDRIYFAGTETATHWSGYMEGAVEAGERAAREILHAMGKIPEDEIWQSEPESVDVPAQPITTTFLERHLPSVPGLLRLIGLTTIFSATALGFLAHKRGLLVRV

[5] = target: T1, Lysine-specific histone demethylase 1A; test: Inhibition of LSD1 in human MGC-803 cells assessed as increase in H3K4me2 accumulation measured after 72 hrs by Western blot analysis; format: cell-based
MGC-803 [6] = test: Induction of apoptosis in human MGC-803 cells after 72 hrs by Annexin V-FITC/propidium iodide staining based flow cytometry; format: functional, cell-based
MGC-803 [7] = test: Cell cycle arrest in human MGC-803 cells assessed as increase in S phase accumulation at 4 uM after 72 hrs by propidium iodide staining based flow cytometry; format: functional
MGC-803 [8] = test: Cell cycle arrest in human MGC-803 cells assessed as decrease in G2/M phase accumulation at 4 uM after 72 hrs by propidium iodide staining based flow cytometry; format: functional
[9] = Half life in human liver microsomes preincubated for 10 mins followed by NADPH regenerating system addition and measured up to 60 mins by LC-MS/MS analysis; format: ADME, Microsome; conditions: time 10-70 min
[10] = Intrinsic clearance in human microsomes preincubated for 10 mins followed by NADPH regenerating system addition and measured up to 60 mins by LC-MS/MS analysis; format: ADME, Microsome; conditions: time 10-70 min
[11] = Stability in human liver microsomes assessed as parent compound remaining preincubated for 10 mins followed by NADPH regenerating system addition and measured up to 60 mins by LC-MS/MS analysis; format: ADME, Microsome; conditions: time 10-70 min, read-out: Stabilty
[12] = Stability in human liver microsomes assessed as parent compound remaining measured 60 mins after mins by LC-MS/MS analysis; format: ADME, Microsome
CYP1A2 = target: T4, CYP1A2 (Homo sapiens, UniProt P05177); test: Inhibition of CYP1A2 in human liver microsomes at 10 uM using CYP substrate preincubated for 10 mins followed by NADPH generating system addition and measured after 10 mins by LC-MS/MS analysis relative to control; format: ADME; conditions: time 20 min
T4 sequence (P05177 whole entry): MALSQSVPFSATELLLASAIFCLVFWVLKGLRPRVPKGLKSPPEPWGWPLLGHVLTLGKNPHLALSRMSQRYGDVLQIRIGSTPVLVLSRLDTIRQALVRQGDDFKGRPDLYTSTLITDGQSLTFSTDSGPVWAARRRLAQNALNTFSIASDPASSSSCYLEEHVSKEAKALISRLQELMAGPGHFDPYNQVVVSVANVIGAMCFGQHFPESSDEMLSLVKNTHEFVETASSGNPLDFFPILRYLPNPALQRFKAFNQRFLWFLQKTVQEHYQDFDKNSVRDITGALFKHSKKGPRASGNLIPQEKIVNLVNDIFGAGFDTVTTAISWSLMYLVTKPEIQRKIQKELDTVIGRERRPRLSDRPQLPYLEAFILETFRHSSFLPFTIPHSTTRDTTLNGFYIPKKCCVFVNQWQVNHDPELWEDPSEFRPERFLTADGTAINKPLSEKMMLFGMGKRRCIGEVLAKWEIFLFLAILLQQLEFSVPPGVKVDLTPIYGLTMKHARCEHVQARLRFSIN

CYP2C9 = CYP2C9 (Homo sapiens, UniProt P11712); test: Inhibition of CYP2C9 in human liver microsomes at 10 uM using CYP substrate preincubated for 10 mins followed by NADPH generating system addition and measured after 10 mins by LC-MS/MS analysis relative to control; format: ADME; conditions: time 20 min
Sequence of CYP2C9 (P11712 whole entry): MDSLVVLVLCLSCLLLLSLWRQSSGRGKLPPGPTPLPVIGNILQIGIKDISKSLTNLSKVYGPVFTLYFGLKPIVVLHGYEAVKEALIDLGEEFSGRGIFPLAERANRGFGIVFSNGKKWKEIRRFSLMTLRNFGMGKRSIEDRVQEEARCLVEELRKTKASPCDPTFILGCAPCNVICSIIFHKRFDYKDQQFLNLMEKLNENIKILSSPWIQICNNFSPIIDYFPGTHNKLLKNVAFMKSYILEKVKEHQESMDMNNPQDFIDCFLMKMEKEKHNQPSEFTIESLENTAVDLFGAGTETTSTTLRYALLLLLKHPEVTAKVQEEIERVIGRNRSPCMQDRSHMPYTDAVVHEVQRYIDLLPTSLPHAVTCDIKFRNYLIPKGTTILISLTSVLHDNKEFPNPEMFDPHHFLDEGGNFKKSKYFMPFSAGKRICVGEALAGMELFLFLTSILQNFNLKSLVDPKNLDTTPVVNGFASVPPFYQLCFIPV

CYP2C19 = CYP2C19 (Homo sapiens, UniProt P33261); test: Inhibition of CYP2C19 in human liver microsomes at 10 uM using CYP substrate preincubated for 10 mins followed by NADPH generating system addition and measured after 10 mins by LC-MS/MS analysis relative to control; format: ADME; conditions: time 20 min
Sequence of CYP2C19 (P33261 whole entry): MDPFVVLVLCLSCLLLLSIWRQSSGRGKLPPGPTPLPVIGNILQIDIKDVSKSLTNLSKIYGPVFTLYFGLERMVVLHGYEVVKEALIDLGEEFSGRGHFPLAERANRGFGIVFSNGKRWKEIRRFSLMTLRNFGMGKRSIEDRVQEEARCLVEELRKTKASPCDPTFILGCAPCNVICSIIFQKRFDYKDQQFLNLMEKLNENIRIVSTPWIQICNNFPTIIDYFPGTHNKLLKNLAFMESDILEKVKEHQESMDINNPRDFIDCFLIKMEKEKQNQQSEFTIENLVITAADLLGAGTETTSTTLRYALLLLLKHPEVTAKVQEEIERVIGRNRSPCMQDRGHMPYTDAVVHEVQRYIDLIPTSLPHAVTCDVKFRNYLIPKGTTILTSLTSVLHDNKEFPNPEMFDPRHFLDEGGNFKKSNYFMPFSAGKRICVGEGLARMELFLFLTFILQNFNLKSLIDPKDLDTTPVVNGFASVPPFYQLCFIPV

CYP2D6 = CYP2D6 (Homo sapiens, UniProt P10635); test: Inhibition of CYP2D6 in human liver microsomes at 10 uM using CYP substrate preincubated for 10 mins followed by NADPH generating system addition and measured after 10 mins by LC-MS/MS analysis relative to control; format: ADME; conditions: time 20 min
Sequence of CYP2D6 (P10635 whole entry): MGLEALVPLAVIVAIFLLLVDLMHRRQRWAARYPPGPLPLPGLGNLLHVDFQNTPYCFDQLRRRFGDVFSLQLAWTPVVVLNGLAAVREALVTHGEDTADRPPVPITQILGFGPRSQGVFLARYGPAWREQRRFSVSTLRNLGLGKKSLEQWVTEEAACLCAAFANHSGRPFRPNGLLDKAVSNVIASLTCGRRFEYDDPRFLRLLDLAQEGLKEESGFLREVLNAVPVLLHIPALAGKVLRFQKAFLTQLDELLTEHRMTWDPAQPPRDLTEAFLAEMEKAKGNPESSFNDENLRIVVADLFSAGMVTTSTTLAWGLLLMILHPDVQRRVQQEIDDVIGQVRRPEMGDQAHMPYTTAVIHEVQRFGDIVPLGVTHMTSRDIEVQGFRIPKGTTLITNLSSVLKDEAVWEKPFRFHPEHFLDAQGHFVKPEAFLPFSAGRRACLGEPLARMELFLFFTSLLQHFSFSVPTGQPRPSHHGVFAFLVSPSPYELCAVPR

CYP3A4 = CYP3A4 (Homo sapiens, UniProt P08684); test: Inhibition of CYP3A4 in human liver microsomes at 10 uM using CYP substrate preincubated for 10 mins followed by NADPH generating system addition and measured after 10 mins by LC-MS/MS analysis relative to control; format: ADME; conditions: time 20 min
Sequence of CYP3A4 (P08684 whole entry): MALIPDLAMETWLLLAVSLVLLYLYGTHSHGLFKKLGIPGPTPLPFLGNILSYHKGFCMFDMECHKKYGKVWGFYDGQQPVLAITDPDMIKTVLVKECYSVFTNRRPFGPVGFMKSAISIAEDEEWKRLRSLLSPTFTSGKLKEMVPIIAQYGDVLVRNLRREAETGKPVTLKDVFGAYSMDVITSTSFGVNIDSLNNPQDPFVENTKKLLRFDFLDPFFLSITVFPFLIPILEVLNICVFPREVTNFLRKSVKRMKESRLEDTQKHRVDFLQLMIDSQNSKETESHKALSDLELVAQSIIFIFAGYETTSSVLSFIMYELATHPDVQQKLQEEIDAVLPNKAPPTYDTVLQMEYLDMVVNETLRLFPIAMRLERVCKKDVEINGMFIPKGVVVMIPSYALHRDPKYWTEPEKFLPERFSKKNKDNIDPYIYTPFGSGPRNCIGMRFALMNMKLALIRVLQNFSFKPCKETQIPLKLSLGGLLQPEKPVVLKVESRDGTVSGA

MGC-803 [13] = test: Antitumor activity against human MGC-803 cells xenografted in Balb/c nude mouse assessed as reduction in tumor weight at 100 mg/kg, po administered once daily via gavage for 21 days measured post last dose relative to control; format: functional; set-up: scale not given: the % may be the effect or the level left; conditions: time 21 day
MGC-803 [14] = test: Antitumor activity against human MGC-803 cells xenografted in Balb/c nude mouse assessed as reduction in tumor volume at 100 mg/kg, po administered once daily via gavage for 21 days measured post last dose relative to control; format: functional; set-up: scale not given: the % may be the effect or the level left; conditions: time 21 day
[15] = Toxicity in human MGC-803 cells xenografted Balb/c nude mouse assessed as body weight loss at 50 to 100 mg/kg, po administered once daily via gavage for 21 days measured at 3 days interval during compound dosing; format: organism-based; conditions: in vivo, 504 h, dose 50-100 mg/kg, time 21 day
MGC-803 [16] = test: Induction of apoptosis in human MGC-803 cells assessed as apoptotic rate at 4 uM after 72 hrs by Annexin V-FITC/propidium iodide staining based flow cytometry relative to control; format: functional
A549 = test: cells; conditions: Homo sapiens, A549, 72 h
Description: Antiproliferative activity against human A549 cells incubated for 72 hrs by CCK8 assay

MGC-803 [17] = test: cells; conditions: Homo sapiens, MGC-803, 72 h
Description: Antiproliferative activity against human MGC-803 cells incubated for 72 hrs by CCK8 assay

MCF7 = test: cells; conditions: Homo sapiens, MCF7, 72 h
Description: Antiproliferative activity against human MCF7 cells incubated for 72 hrs by CCK8 assay

PC-3 = test: cells; conditions: Homo sapiens, PC-3, 72 h
Description: Antiproliferative activity against human PC-3 cells incubated for 72 hrs by CCK8 assay

THP-1 = test: cells; conditions: Homo sapiens, THP-1, 72 h
Description: Antiproliferative activity against human THP-1 cells incubated for 72 hrs by CCK8 assay

NB-4 = test: cells; conditions: Homo sapiens, NB-4, 72 h
Description: Antiproliferative activity against human NB-4 cells incubated for 72 hrs by CCK8 assay

[18] = target: T1, Lysine-specific histone demethylase 1A; test: Reversible inhibition of recombinant N-terminal FLAG-tagged human LSD1 expressed in baculovirus infected Sf9 insect cells at 10 times IC50 using H3K4me2 as substrate preincubated for 30 mins followed by 100 fold dilution and subsequent substrate addition and measured after 30 mins by jump dilution method; conditions: time 60.0 min
[19] = target: T1, Lysine-specific histone demethylase 1A; test: Non-competitive inhibition of recombinant N-terminal FLAG-tagged human LSD1 expressed in baculovirus infected Sf9 insect cells up to 0.6 uM using varying levels of H3K4me2 as substrate measured after 45 mins by Lineweaver-burk plot analysis; conditions: dose microM <=0.6, time 45.0 min
[20] = target: T1, Lysine-specific histone demethylase 1A; test: Inhibition of LSD1 in human MGC-803 cells assessed as increase in H3K9me2 accumulation up to 4 uM measured after 72 hrs by Western blot analysis; format: cell-based; conditions: dose microM <=4, time 72.0 hrs
[21] = target: T1, Lysine-specific histone demethylase 1A; test: Inhibition of LSD1 in human MGC-803 cells assessed as increase in H3K9me1 accumulation up to 4 uM measured after 72 hrs by Western blot analysis; format: cell-based; conditions: dose microM <=4, time 72.0 hrs

IC50 [2] [nM]	IC50 [3] [µM]	IC50 [4] [µM]	inhibition [5]	half-life [9] [min]	microsomal CLint [10] [µL/min/mg]	remaining at 1 h [11] [%]	IC50 (A549) [µM]	IC50 (MGC-803 [17]) [µM]	IC50 (MCF7) [µM]	IC50 (PC-3) [µM]	IC50 (THP-1) [µM]	IC50 (NB-4) [µM]	SMILES	Activity (MGC-803 [6])	Activity (MGC-803 [7])	Activity (MGC-803 [8])	Activity (MGC-803 [16]) [%]	further results
0.1													CCOCc1cccc(NC(=O)c2cc3sccc3n2C)c1COc1ccc(OC[C@H]2CCNC2)cc1					IC50 [1]: 0.0078 µM
0.54	> 50	> 50	Dose-dependent effect	61.9	22.4	57.5	3.01	1.75	9.49	4.29	9.63	1.13	Cn1c(C(=O)Nc2cccc3c2N(Cc2ccc(OC4CCNCC4)cc2)CCC3)cc2cc(F)ccc21	Dose-dependent effect	Active	Active	24.86	Stabilty ([12]; microsomes, 1 h): 122.6%; inhibition at 10 min, 10 µM (CYP1A2): 4.6%; inhibition at 10 min, 10 µM (CYP2C9): 0%; inhibition at 10 min, 10 µM (CYP2C19): 16.1%; inhibition at 10 min, 10 µM (CYP2D6): 6.1%; inhibition at 10 min, 10 µM (CYP3A4): 40.1%; Activity (MGC-803 [13]): 28.1%; Activity (MGC-803 [14]): 28.6%; Activity [15]: Non-Toxic
0.05	> 50	> 50	Dose-dependent effect	27.7	50.1	20.3	5.97	1.13	5.83	2.86	9.68	9.53	Cn1c(C(=O)Nc2cccc3c2N(Cc2ccc(OC4CCNCC4)cc2)CCC3)cc2ccccc21	Dose-dependent effect	Active	Active	22.79	inhibition [18]: Active; inhibition [19]: Active; inhibition [20]: Active; inhibition [21]: Active; remaining at 1 h ([12]; liver microsomes, read-out: Stabilty): 101%
